Tested on: Kwl:A-1 brown guinea pigs
Assay: Pigmentation inhibitory effect: UVB-induced pigmentation in brown guinea pigs, L value (lightness) by color-difference meter
Assay type: in vivo, guinea pig
Conditions: 10 ml/kg; for Final day of the test L value: L value (lightness) of the irradiated site on final day (14 days), oral, twice a day, UVB on day 0, 2nd and 4th days; for ΔL value: L value on the observation day minus L value before irradiation, final day (14 days), oral twice a day, larger ΔL values show higher effect
From the text: Ultraviolet ray (UVB) irradiation time was examined using two female 6-week-old Kwl:A-1 brown guinea pigs (SPF). That is, one of the guinea pigs was fixed on the abdominal position, and three 2 cm×2 cm square ultraviolet ray irradiating sites were arranged in bilateral symmetry with the dorsal midline between, thus six sites in total. By shading the body except for the ultraviolet ray irradiating sites, an ultraviolet ray (UVB) was irradiated from a distance of 40 cm using five SE lamps (wavelength 250 to 350 nm, F[…]-E, manufactured by TOSHIBA). […] Examination was made by using five female 7-week-old Kwl:A-1 brown guinea pigs (SPF) in one group. That is, each of the guinea pigs was fixed on the abdominal position using a fixation plate on the respective ultraviolet ray irradiating days (on the day of the commencement of sample administration and on the 2nd and 4th days thereafter). One 2 cm×2 cm square arranged on the left or right side with the guinea pig dorsal midline between was used as the ultraviolet ray irradiating site, and the body was shaded except for the ultraviolet ray irradiating site. Two guinea pigs in one group were irradiated with an ultraviolet ray (LTVB) for 11 minutes and 30 seconds, and three guinea pigs in one group, from a distance of 40 cm using five SE lamps (wavelength 250 to 350 nm, F[…]·E, manufactured by TOSHIBA). During the testing period (14 days), each test sample was orally administered twice a day. Each sample solution was administered at a dose of 10 ml/kg. In this case, the administration was carried out after the ultraviolet ray irradiation on each ultraviolet ray irradiation day, or after the judgment on each pigmentation judging day. Before the irradiation on the day of the commencement of test sample administration and on the final day of the test, a ΔL value (L value on the observation day-L value before irradiation) was calculated by measuring L value (lightness) of the irradiated site using a color-difference meter (CR-300, manufactured by MINOLTA CAMERA).

Row | SMILES | Final day of the test L value | ΔL value
1 | NC[C@H]1CC[C@H](C(=O)O)CC1 [Sample (2), tranexamic acid] | 58.30 ± 1.20 | −3.76 ± 1.78
2 | N[C@@H](CS)C(=O)O [Sample (3), L-cysteine] | 59.52 ± 3.10 | −3.32 ± 1.70
3 | O=C1O[C@H]([C@@H](O)CO)C(O)=C1O [Sample (4), ascorbic acid] | 57.35 ± 1.56 | −4.76 ± 1.62
